Laboratory results as given in publication PMC5962653 (Frontiers in Microbiology, 2018).
≈ marks a conversion by molar mass, not a printed value. Like-named read-outs stand apart in the source and are kept apart here. Marks after values point to notes of the source that are not given here.

Assays:
[1] = tested on: K. pneumoniae Kp28, OXA-48 plus CTX-M-15 producer; experiment: MIC by broth microdilution (agar dilution for fosfomycin); assay type: cell-based, Klebsiella pneumoniae; conditions: supplement table, strain KPc28; for MIC: Klebsiella pneumoniae; for SIR, classification according to EUCAST definitions: EUCAST 2016 breakpoints, fosfomycin by agar dilution
Description: (§1) Four genetically unrelated clinical isolates of CP-Kp were studied: Kp07, a VIM-1 ST 1603 clone producer ([Miro et al., 2013]); Kp21, which co-produced VIM-1 and the acquired AmpC type beta-lactamase DHA-1 ST 11 clone ([Miro et al., 2013]); Kp28, co-producing OXA-48 ST11 clone and the extended spectrum beta-lactamase (ESBL) CTX-M-15 ([Oteo et al., 2015]); and Kp29, co-producing KPC-3 ST512 clone with the broad spectrum beta-lactamases TEM-1 and SHV-11 ([Lopez-Cerero et al., 2014]), thereinafter VIM-1, VIM-1/DHA-1, OXA-48 plus CTX-M-15, and KPC-3 producers, respectively. Identification of these isolates was confirmed by a Microflex LT-MALDI Biotyper mass spectrometer (Bruker Daltonics GmbH, Bremen, Germany). The presence of carbapenemase genes, and genes coding for other beta-lactamases was confirmed by PCR and sequencing as described previously. The absence of genetic relation among the isolates was confirmed by PFGE analysis of chromosomal restriction fragments obtained after XbaI cleavage following the criteria of [Tenover et al. (1995)]. […] The antibiotic susceptibility profiles are included in the Supplementary Information.
(§2) MICs of antibiotics were determined by broth microdilution as recommended by the [Clinical and Laboratory Standards Institute [CLSI] (2012)], using Mueller Hinton broth II (MHB) (Becton Dickinson & Co., Sparks, MD, United States) and agar dilution method for fosfomycin. MIC results were interpreted according to the [European Committee on Antimicrobial Susceptibility Testing [EUCAST] (2016)]^1 breakpoints. Studies were performed in triplicate.

[2] = tested on: K. pneumoniae Kp29, KPC-3 producer; experiment: as above; assay type: cell-based, Klebsiella pneumoniae; conditions: for MIC: Klebsiella pneumoniae
Description: as §1, §2

[3] = tested on: K. pneumoniae Kp07, VIM-1 producer; experiment: as above; assay type: cell-based, Klebsiella pneumoniae; conditions: supplement table, strain KPc07; for MIC: Klebsiella pneumoniae; for SIR, classification according to EUCAST definitions: EUCAST 2016 breakpoints, fosfomycin by agar dilution
Description: as §1, §2

[4] = tested on: K. pneumoniae Kp21, VIM-1/DHA-1 producer; experiment: as above; assay type: cell-based, Klebsiella pneumoniae; conditions: supplement table, strain KPc21; for MIC: Klebsiella pneumoniae; for SIR, classification according to EUCAST definitions: EUCAST 2016 breakpoints, fosfomycin by agar dilution
Description: as §1, §2

[5] = tested on: K. pneumoniae OXA-48 plus CTX-M-15 strain; experiment: Murine peritoneal sepsis model; assay type: in vivo, C57BL/6 mice infected with Klebsiella pneumoniae; conditions: CMS 20 mg/kg/8 h ip, rifampin 25 mg/kg/6 h ip, alone or combined
Procedure: (§3) A previously described murine peritoneal sepsis model was used ([Parra Millan et al., 2016]). Briefly, groups of un-anesthetized C57BL/6 mice were infected by ip injection of 0.5 mL of the Minimal Lethal Dose (MLD) of each strain, corresponding to (log10 cfu/mL): 8.97, 8.94 9.35, and 8.38 for VIM-1, VIM-1/DHA-1, OXA-48 plus CTX-M-15, and KPC-3 strains, respectively. Treatments were initiated 4 h post-inoculation. […] Afterward, mice were treated and monitored for 72 h. […] Samples were extracted and processed immediately after the death of mice; the survivor mice were sacrificed (sodium thiopental) at the 72 h. Aseptic thoracotomies were carried out, and blood samples were obtained for qualitative blood cultures; results were expressed as positive (≥1 cfu present in the plate) or negative. Spleens were aseptically extracted, weighed, and homogenized in sterile saline (Stomacher 80; Tekmar Co., Cincinnati, OH, United States) before quantitative cultures (log10 cfu/g) in Columbia agar with 5% sheep blood plates.
(§4) Mortality and bacteremia rates are expressed as percentages and bacterial tissue concentrations (log10 cfu/g) as means ±SD. The two-tailed Fisher’s test, analysis of variance (ANOVA), and the Dunnet and Tukey post hoc tests were used. A P < 0.05 was considered significant. The SPSS v22.0 statistical package was used (SPSS Inc).

[6] = Serum pharmacokinetics in healthy mice; conditions: single ip dose (CMS 20 mg/kg; rifampin 25 mg/kg), LC-MS/MS, PKSOLVER
Procedure: Mice were housed in an individually ventilated cage system under specific pathogen-free conditions, and water and food supplied ad libitum. […] All procedures were performed under sodium thiopental (B. Braun Medical S.A., Spain) anesthesia, and all efforts were made to minimize suffering.
Blood samples were immediately centrifuged (4500 rpm, 15 min at 4°C), and serum samples stored at -80°C until the analysis. Both serum free and total antibiotic concentrations were measured using HPLC-tandem mass spectrometry (LC-MS/MS) ([Waters et al., 2008]; [Gobin et al., 2010]). Free fractions of the drugs were calculated as described previously ([Waters et al., 2008]; [Gonzalez et al., 2013]; [Cheah et al., 2015]).

[7] = tested on: K. pneumoniae VIM-1/DHA-1 strain; assay type: in vivo; conditions: CMS 20 mg/kg/8 h ip, rifampin 25 mg/kg/6 h ip, alone or combined
Procedure: as §3, §4

[8] = tested on: K. pneumoniae VIM-1 strain; assay type: in vivo; conditions: CMS 20 mg/kg/8 h ip, rifampin 25 mg/kg/6 h ip, alone or combined
Procedure: as §3, §4

[9] = tested on: K. pneumoniae OXA-48 plus CTX-M-15 strain; assay type: in vivo; conditions: CMS 20 mg/kg/8 h ip, rifampin 25 mg/kg/6 h ip, alone or combined
Procedure: A previously characterized murine pneumonia model was used ([Pachon-Ibanez et al., 2010]; [Docobo-Perez et al., 2012]; [Parra Millan et al., 2016]) with the OXA-48 plus CTX-M-15 strain, as OXA-48 is the most prevalent carbapenemase in Spain nowadays ([Palacios-Baena et al., 2016]). Anesthetized mice were infected intratracheally, using 50 μl of a final inoculum of 8.18 log10 cfu/mL. Therapies were initiated 4 h post-infection and treatment groups and dosages were the same as in the peritoneal sepsis model. Mice were treated and monitored over 72 h. After death or sacrifice of the mice at 72 h, blood and lungs samples were aseptically obtained and processed as detailed above.
as §4

[10] = tested on: K. pneumoniae VIM-1/DHA-1 producer; assay type: cell-based, Klebsiella pneumoniae; conditions: colistin 2 mg/L (EUCAST breakpoint), rifampin 2 mg/L, alone or combined; inoculum 1 × 10^6 cfu/mL, 37°C, samples 0-24 h; three experiments
Procedure: (§5) (2016)]. […] Tubes were incubated at 37°C, with shaking, and samples were taken at 0, 1, 3, 6, and 24 h, serially diluted and plated using a spiral platter (Eddy Jet, IUL S.A., Barcelona, Spain). Bacterial colonies were counted using an automatic counter (Flash & Go, IUL S.A., Barcelona, Spain) ([Pournaras et al., 2011]; [Souli et al., 2011]). Experiments were performed three times on separate occasions. […] Bactericidal activities of single antibiotics or combination were defined as a decrease ≥ 3 log10 cfu/mL from the starting inoculum ([Souli et al., 2009]). Studies were performed in triplicate.
(§6) The RIF concentration used for all strains was 2 mg/L. RIF, filled circles; CST, filled squares; combination of both antimicrobials, filled triangles.

[11] = tested on: K. pneumoniae OXA-48 plus CTX-M-15 producer; assay type: cell-based, Klebsiella pneumoniae; conditions: colistin 0.5 mg/L (MIC), rifampin 2 mg/L, alone or combined; inoculum 1 × 10^6 cfu/mL, 37°C, samples 0-24 h; three experiments
Procedure: as §5, §6

[12] = tested on: K. pneumoniae VIM-1 producer; assay type: cell-based, Klebsiella pneumoniae; conditions: colistin 0.5 mg/L (MIC), rifampin 2 mg/L, alone or combined; inoculum 1 × 10^6 cfu/mL, 37°C, samples 0-24 h; three experiments
Procedure: as §5, §6

[13] = broth microdilution, read-out: MIC
[14] = agar dilution, read-out: MIC (agar dilution method)
[15] = supplement table, strain KPc29, EUCAST 2016 breakpoints, fosfomycin by agar dilution
[16] = 72 h, from 4 h post-inoculation
[17] = qualitative blood cultures at death or 72 h

Row | Structure (SMILES) | MIC [1, 13] [µg/mL] | SIR, classification according to EUCAST definitions [1] | MIC [2] [µg/mL] | MIC [3, 13] [µg/mL] | SIR, classification according to EUCAST definitions [3] | MIC [4, 13] [µg/mL] | SIR, classification according to EUCAST definitions [4] | SIR, classification according to EUCAST definitions [2, 15] | also measured
1 | NCC[C@H](O)C(=O)N[C@@H]1C[C@H](N)[C@@H](O[C@H]2O[C@H](CN)[C@@H](O)[C@H](O)[C@H]2O)[C@H](O)[C@H]1O[C@H]1O[C@H](CO)[C@@H](O)[C@H](N)[C@H]1O [Amikacin] | 1 (≈ 1.71 µM) | S | > 32 | 1 (≈ 1.71 µM) | S | 4 (≈ 6.83 µM) | S |  | SIR, classification according to EUCAST definitions [2]: R
2 | C[C@@H]1O[C@@H]1P(=O)(O)O [Fosfomycin] |  | S |  |  | S |  | S | R | MIC [1, 14]: 32 µg/mL (≈ 232 µM); MIC ([2]; supplement table, strain KPc29, agar dilution, read-out: MIC (agar dilution method)): 64 µg/mL (≈ 464 µM); MIC [3, 14]: 8 µg/mL (≈ 57.9 µM); MIC [4, 14]: 8 µg/mL (≈ 57.9 µM)
3 | CNC(C)C1CCC(N)C(OC2C(N)CC(N)C(OC3OCC(C)(O)C(NC)C3O)C2O)O1 (stereo not drawn) [Gentamicin] | 0.5 (≈ 1.05 µM) | S |  | 4 (≈ 8.38 µM) | I | 2 (≈ 4.19 µM) | S | S | 
4 | C[C@@H](O)[C@H]1C(=O)N2C(C(=O)O)=C(S[C@@H]3CN[C@H](C(=O)N(C)C)C3)[C@H](C)[C@H]12 [Meropenem] | 2 (≈ 5.22 µM) | S | > 32 | 2 (≈ 5.22 µM) | S | 16 (≈ 41.7 µM) | R | R | 
5 | CO[C@H]1/C=C/O[C@@]2(C)Oc3c(C)c(O)c4c(O)c(c(/C=N/N5CCN(C)CC5)c(O)c4c3C2=O)NC(=O)/C(C)=C\C=C\[C@H](C)[C@H](O)[C@@H](C)[C@@H](O)[C@@H](C)[C@H](OC(C)=O)[C@@H]1C [Rifampin, rifampin] |  |  |  |  |  |  |  |  | Mice mortality (%) [5, 16]: 100%; Log10 cfu/g spleen (mean ±SD) ([5]; ip MLD 9.35 log10 cfu/mL, from 4 h post-inoculation, 72 h, at death or 72 h, SD): 8.24 ± 0.76^c log10 cfu/g; Bacteremia (%) [5, 17]: 100%; AUC0-24, free drug in serum (fAUC0-24) ([6]; free (fCST, fRIF)): 44.14 mg⋅h/L; Cmax, free drug in serum ([6]; free (fCST, fRIF), sets of three mice): 2900 ng/mL; AUC0-24, total drug in serum ([6]; total (tCST, tRIF)): 1103.58 mg⋅h/L; Cmax, total drug in serum ([6]; total (tCST, tRIF), sets of three mice): 72580 ng/mL; Mice mortality (%) [7, 16]: 100%; Log10 cfu/g spleen (mean ±SD) ([7]; ip MLD 8.94 log10 cfu/mL, from 4 h post-inoculation, 72 h, at death or 72 h, SD): 9.68 ± 0.09 log10 cfu/g; Bacteremia (%) [7, 17]: 100%; Mice mortality (%) [8, 16]: 100%; Bacteremia (%) [8, 17]: 100%; Bacteremia (%) ([9]; blood cultures at death or 72 h): 20%; Log10 cfu/g lung (mean ±SD) ([9]; intratracheal 50 μl of 8.18 log10 cfu/mL, from 4 h post-infection, 72 h, at death or 72 h, SD): 3.07 ± 1.63^a log10 cfu/g; Bactericidal activity in time-kill curves (decrease ≥ 3 log10 cfu/mL from the starting inoculum) [10]: did not show bactericidal activity; Bactericidal activity in time-kill curves (decrease ≥ 3 log10 cfu/mL from the starting inoculum) [11]: did not show bactericidal activity; Bactericidal activity in time-kill curves (decrease ≥ 3 log10 cfu/mL from the starting inoculum) [12]: did not show bactericidal activity
